Assay [1] in a line: Inhibitory potency against Herpes Simplex virus ribonucleotide reductase. More on the design: species or system Herpes simplex virus (type 1 / strain 17).
Assay [2] can be described thus: Inhibitory potency against Varicella zoster virus ribonucleotide reductase.

Starred links: 1 amine or outer side, 2 acyl side, 3 side chain; linkers in the order of their positions; H or OH if unused. Non-standard residues stand in square brackets, D forms with d. Residues, ends and D or L forms follow the SMILES beside them. *: point of attachment. Asp(3,3-(CH2)4) = N[C@H](C(=O)O)C1(C(=O)O)CCCC1; Dibenzylacetyl = O=C(C(Cc1ccccc1)Cc1ccccc1)*; Hydrocinnamoyl = O=C(CCc1ccccc1)*; tBuAla = CC(C)(C)C[C@H](N)C(=O)O; Tle = CC(C)(C)[C@H](N)C(=O)O; NMeV = CN[C@H](C(=O)O)C(C)C; NH(3-pentyl) = CCC(CC)N*; Pyrrolidide = C1CCN(*)C1; CO = O=C([*:1])[*:2]; X1 = CCC(CC)OC(=O)*; X2 = CCC(CC)CC(=O)*

The IC50 is the midpoint of a concentration-inhibition curve.

Turning to `CC(C)C[C@H](NC(=O)[C@H](CC(=O)O)NC(=O)[C@H](CC(N)=O)NC(=O)[C@@H](NC(=O)[C@@H](NC(=O)CCc1ccccc1)C(C)C)C(C)C)C(=O)O`, the IC50 in assay [1] amounted to 4000 nM; in assay [2], 15000 nM. In assay [1], `CC(C)C[C@H](NC(=O)[C@H](CC(=O)O)NC(=O)[C@H](CC(N)=O)NC(=O)[C@@H](NC(=O)[C@@H](NC(=O)[C@H](C)NC(=O)CNC(=O)[C@H](C)NC(=O)[C@@H](N)Cc1ccc(O)cc1)C(C)C)C(C)C)C(=O)O` gave an IC50 of 25000 nM. Consider `CCC(CC)NC(=O)C[C@H](C(=O)N[C@@H](CC(=O)N1CCCC1)C(=O)N[C@@H](CC(=O)O)C(=O)N[C@@H](CC(C)C)C(=O)O)C(C)(C)C`, for which the IC50 turned out to be 5 nM in assay [1] and 3500 nM in assay [2]. Consider `CC(C)C[C@H](NC(=O)[C@H](CC(=O)O)NC(=O)[C@H](CC(=O)N1CCCC1)NC(=O)[C@@H](NC(=O)[C@@H](NC(=O)C(Cc1ccccc1)Cc1ccccc1)C(C)C)C(C)C)C(=O)O` (Dibenzylacetyl-VVD(Pyrrolidide)DL-OH), for which the IC50 in assay [1] was determined as 0.7 nM; in assay [2], 22 nM.

Regarding `CC(C)C[C@H](NC(=O)[C@H](CC(=O)O)NC(=O)[C@H](CC(=O)N1CCCC1)NC(=O)[C@@H](NC(=O)[C@@H](NC(=O)CCc1ccccc1)C(C)C)C(C)C)C(=O)O` (Hydrocinnamoyl-VVD(Pyrrolidide)DL-OH), the figures for the IC50 in assay [1] and in assay [2] were 24 nM and 588 nM, respectively.

As to `CC(C)[C@H](NC(=O)CCc1ccccc1)C(=O)N[C@H](C(=O)N[C@@H](CC(=O)N1CCCC1)C(=O)N[C@@H](CC(=O)O)C(=O)N[C@@H](CC(C)(C)C)C(=O)O)C(C)C` (Hydrocinnamoyl-VVD(Pyrrolidide)D[tBuAla]-OH), the results for the IC50 in assay [1] and in assay [2] were 5 nM and 9800 nM, respectively. Take `CC(C)C[C@H](NC(=O)[C@@H](NC(=O)[C@H](CC(=O)N1CCCC1)NC(=O)[C@@H](NC(=O)[C@@H](NC(=O)CCc1ccccc1)C(C)C)C(C)C)C1(C(=O)O)CCCC1)C(=O)O` (Hydrocinnamoyl-VVD(Pyrrolidide)[Asp(3,3-(CH2)4)]L-OH): the figures for the IC50 in assay [1] and in assay [2] were 1 nM and 37 nM, respectively. `CC(C)C[C@H](NC(=O)[C@H](CC(=O)O)NC(=O)[C@H](CC(=O)N1CCCC1)NC(=O)[C@@H](NC(=O)[C@@H](NC(=O)CCc1ccccc1)C(C)C)C(C)(C)C)C(=O)O` (Hydrocinnamoyl-V[Tle]D(Pyrrolidide)DL-OH): the IC50 in assay [1] worked out at 4 nM; in assay [2] it was 123 nM. For `CC(C)C[C@H](NC(=O)[C@H](CC(=O)O)NC(=O)[C@H](CC(=O)N1CCCC1)NC(=O)[C@@H](NC(=O)[C@H](C(C)C)N(C)C(=O)CCc1ccccc1)C(C)C)C(=O)O` (Hydrocinnamoyl-[NMeV]VD(Pyrrolidide)DL-OH), the values for the IC50 in assay [1] and in assay [2] were 7.5 nM and 210 nM, respectively.

As to `CCC(CC)OC(=O)N[C@H](C(=O)N[C@@H](CC(=O)N1CCCC1)C(=O)N[C@@H](CC(=O)O)C(=O)N[C@@H](CC(C)C)C(=O)O)C(C)(C)C` (X1-[Tle]D(Pyrrolidide)DL-OH), the values for the IC50 in assay [1] and in assay [2] were 635 nM and 7000 nM, respectively. Compound `CCC(CC)CC(=O)N[C@H](C(=O)N[C@@H](CC(=O)N1CCCC1)C(=O)N[C@@H](CC(=O)O)C(=O)N[C@@H](CC(C)C)C(=O)O)C(C)(C)C` (X2-[Tle]D(Pyrrolidide)DL-OH) yielded an IC50 in assay [1] of 140 nM. Take `CCC(CC)NC(=O)N[C@H](C(=O)N[C@@H](CC(=O)N1CCCC1)C(=O)N[C@@H](CC(=O)O)C(=O)N[C@@H](CC(C)C)C(=O)O)C(C)(C)C` ({NH(3-pentyl)-CO}-[Tle]D(Pyrrolidide)DL-OH): the IC50 came to 3 nM in assay [1] and 925 nM in assay [2].

In assay [1], H-YAGTVINDL-OH came in with an IC50 of 8000 nM.
